Reference: patent US20260193170A1 (University of Copenhagen, priority 2022, published 2026)

Target: T1, human Keap1 Kelch domain (Homo sapiens, UniProt Q14145)
T1 construct: human Keap1 Kelch domain (residue 321-609, UniProt Q14145); made in house; host or cells: Escherichia coli BL21 (DE3) pLysS, pRSET A vector
Assay: Fluorescence polarization (FP) competition assay, Cy5-Nrf2 peptide probe
Type: binding
Details: heterologous competition FP; Keap1 Kelch 14 nM, Cy5-Nrf2 probe 3 nM, 4% DMSO; mean ± SEM
Procedure: The binding affinities between the fluorescent peptide probe Cy5-Nrf2 (SEQ: Cy5-[…]-NH2) and the human Keap1 Kelch domain were determined as Kd values by saturation binding experiments, where increasing concentrations of Keap1 (0-300 nM) were added to a fixed concentration of peptide probe (3 nM). The assay was performed in a 1× HBSTET buffer (10 mM HEPES, 150 mM NaCl, 0.005% Tween20, 3 mM ethylenediaminetetraacetic acid (EDTA), 1 mM TCEP, pH=7.4) using black flat-bottom 384-well plates (Corning Life Sciences, NY), a volume of 30 μL/well, and a final DMSO concentration of 4% or 8%. The assay plate was spun down to ascertain proper mixing and removal of potential air bubbles and incubated for 10-15 min at room temperature before measuring the FP levels on a Safire2 plate reader (Tecan, Mannedorf, Switzerland). The g-factor was adjusted at each experiment so that a series of three blank wells containing probe but no Keap1 Kelch defined the baseline FP value. The Cy5-Nrf2 probe was measured at excitation/emission values of 635:670 nm. The FP values were fitted to the one-site specific binding equation: Y=Bmax×X/(Kd+X), with Bmax being the maximal FP value, X the Keap1 Kelch concentration, and Y the variable FP values. The Kd values were derived from the resulting binding saturation curve as being equal to the Keap1 Kelch concentration, where the curve is half-saturated.
The affinities between nonfluorescent small molecule Keap1 inhibitors and Keap1 Kelch were determined as Ki values in a heterologous competition FP binding assay. This was done by adding increasing concentration of test compound (2-fold serial dilutions, 12 concentrations tested per inhibition curve as duplicates) to a fixed concentration of Keap1 Kelch (14 nM) and the Cy5-Nrf2 peptide probe (3 nM) in the same HBSTET buffer and conditions as described above (final DMSO concentrations were 4%). FP values were fitted to the equation Y=Bottom+(Top−Bottom)/[1+(10^HillSlope×(log IC50−X))], where X is the logarithmic value of compound concentration. Hereby, the IC50 value was obtained, which together with the […] value and probe and Keap1 Kelch concentrations was used to calculate the theoretical competitive inhibition constant, the Ki value. 43 Ki values are shown as mean±SEM (standard error of mean) if based on two or more individual measurements.

T1 sequence (Q14145 321-609): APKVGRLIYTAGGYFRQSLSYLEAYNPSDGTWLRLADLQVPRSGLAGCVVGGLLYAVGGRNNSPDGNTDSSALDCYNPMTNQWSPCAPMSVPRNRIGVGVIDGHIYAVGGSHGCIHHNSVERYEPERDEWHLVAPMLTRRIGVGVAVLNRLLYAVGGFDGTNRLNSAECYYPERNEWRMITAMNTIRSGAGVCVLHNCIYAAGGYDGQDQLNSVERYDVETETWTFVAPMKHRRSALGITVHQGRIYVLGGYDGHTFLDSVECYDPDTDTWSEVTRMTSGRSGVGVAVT

Row | Compound | Ki [µM]
1 | Cc1cc2c(cc1C(CC(=O)O)c1ccc3ccc(OCC(=O)NC4C=CCCC4)cc3c1)CCO2 (stereo not drawn) [4n, 3-(7-(2-(cyclohex-2-en-1-ylamino)-2-oxoethoxy)naphthalen-2-yl)-3-(6-methyl-2,3-dihydrobenzofuran-5-yl)propanoic acid] | 0.018 ± 0.002
2 | O=C(O)CC(c1ccc2c(c1)OCO2)c1ccc2ccc(OCC(=O)N[C@H]3C[C@@H]4CC[C@H]3C4)cc2c1 (stereo partly drawn) [5a, 3-(benzo[d][1,3]dioxol-5-yl)-3-(7-(2-(((1S,2S,4R)-bicyclo[2.2.1]heptan-2-yl)amino)-2-oxoethoxy)naphthalen-2-yl)propanoic acid] | 0.02 ± 0.003
3 | O=C(O)CC(c1ccc2ccc(OCC(=O)N[C@H]3C[C@@H]4CC[C@H]3C4)cc2c1)c1cc2c(cc1Cl)OCO2 (stereo partly drawn) [5b, 3-(7-(2-(((1S,2S,4R)-bicyclo[2.2.1]heptan-2-yl)amino)-2-oxoethoxy)naphthalen-2-yl)-3-(6-chlorobenzo[d][1,3]dioxol-5-yl)propanoic acid] | 0.004
4 | Cc1cc2c(cc1C(CC(=O)O)c1ccc3ccc(OCC(=O)N[C@H]4C[C@@H]5CC[C@H]4C5)cc3c1)OCO2 (stereo partly drawn) [5c, 3-(7-(2-(((1S,2S,4R)-bicyclo[2.2.1]heptan-2-yl)amino)-2-oxoethoxy)naphthalen-2-yl)-3-(6-methylbenzo[d][1,3]dioxol-5-yl)propanoic acid] | 0.007
5 | Cc1cc2c(cc1C(CC(=O)O)c1ccc3ccc(OCC(=O)N[C@H]4C[C@@H]5CC[C@H]4C5)cc3c1)OCCO2 (stereo partly drawn) [5d, 3-(7-(2-(((1S,2S,4R)-bicyclo[2.2.1]heptan-2-yl)amino)-2-oxoethoxy)naphthalen-2-yl)-3-(7-methyl-2,3-dihydrobenzo[b][1,4]dioxin-6-yl)propanoic acid] | ~0.001
6 | O=C(O)CC(c1ccc2c(c1)OCO2)c1ccc2ccc(OCC(=O)NC3CC=CCC3)cc2c1 (stereo not drawn) [6a, 3-(Benzo[d][1,3]dioxol-5-yl)-3-(7-(2-(cyclohex-3-en-1-ylamino)-2-oxoethoxy)naphthalen-2-yl)propanoic acid] | 0.076 ± 0.009
7 | O=C(O)CC(c1ccc2c(c1)OCO2)c1ccc2ccc(OCC(=O)NC3CCC(F)(F)CC3)cc2c1 (stereo not drawn) [6b, 3-(benzo[d][1,3]dioxol-5-yl)-3-(7-(2-((4,4-difluorocyclohexyl)amino)-2-oxoethoxy)naphthalen-2-yl)propanoic acid] | 0.08 ± 0.01
8 | CC(C)CNC(=O)COc1ccc2ccc(C(CC(=O)O)c3ccc4c(c3)OCO4)cc2c1 (stereo not drawn) [6c, 3-(benzo[d][1,3]dioxol-5-yl)-3-(7-(2-(isobutylamino)-2-oxoethoxy)naphthalen-2-yl)propanoic acid] | 0.138 ± 0.024
9 | O=C(O)CC(c1ccc2c(c1)OCO2)c1ccc2ccc(OCC(=O)NC3CCCC3)cc2c1 (stereo not drawn) [6d, 3-(benzo[d][1,3]dioxol-5-yl)-3-(7-(2-(cyclopentylamino)-2-oxoethoxy)naphthalen-2-yl)propanoic acid] | 0.062 ± 0.005
10 | O=C(O)CC(c1ccc2c(c1)OCO2)c1ccc2ccc(OCC(=O)NC34CC5CC(CC(C5)C3)C4)cc2c1 [6e, 3-(7-(2-(((1S,3s)-adamantan-1-yl)amino)-2-oxoethoxy)naphthalen-2-yl)-3-(benzo[d][1,3]dioxol-5-yl)propanoic acid] | 0.516 ± 0.115
11 | CC1(NC(=O)COc2ccc3ccc(C(CC(=O)O)c4ccc5c(c4)OCO5)cc3c2)CCCCC1 (stereo not drawn) [6f, 3-(benzo[d][1,3]dioxol-5-yl)-3-(7-(2-((1-methylcyclohexyl)amino)-2-oxoethoxy)naphthalen-2-yl)propanoic acid] | 0.477 ± 0.07
12 | CC1(C)CCC(NC(=O)COc2ccc3ccc(C(CC(=O)O)c4ccc5c(c4)OCO5)cc3c2)CC1 (stereo not drawn) [6g, 3-(benzo[d][1,3]dioxol-5-yl)-3-(7-(2-((4,4-dimethylcyclohexyl)amino)-2-oxoethoxy)naphthalen-2-yl)propanoic acid] | 0.056 ± 0.007
13 | O=C(O)CC(c1ccc2c(c1)OCO2)c1ccc2ccc(OCC(=O)N[C@@H]3C[C@@H]4CC[C@H]3C4)cc2c1 (stereo partly drawn) [6h, 3-(benzo[d][1,3]dioxol-5-yl)-3-(7-(2-(((1S,2R,4R)-bicyclo[2.2.1]heptan-2-yl)amino)-2-oxoethoxy)naphthalen-2-yl)propanoic acid] | 0.019 ± 0.003
14 | O=C(O)CC(c1ccc2c(c1)OCO2)c1ccc2ccc(OCC(=O)N[C@H]3CC[C@H](C(F)(F)F)CC3)cc2c1 (stereo partly drawn) [6i, 3-(benzo[d][1,3]dioxol-5-yl)-3-(7-(2-oxo-2-((trans-4-(trifluoromethyl)cyclohexyl)amino)ethoxy)naphthalen-2-yl)propanoic acid] | 0.397 ± 0.041
15 | O=C(O)CC(c1ccc2c(c1)OCO2)c1ccc2ccc(OCC(=O)N[C@H]3CC[C@@H](C(F)(F)F)CC3)cc2c1 (stereo partly drawn) [6j, 3-(benzo[d][1,3]dioxol-5-yl)-3-(7-(2-oxo-2-((cis-4-(trifluoromethyl)cyclohexyl)amino)ethoxy)naphthalen-2-yl)propanoic acid] | 0.045 ± 0.001
16 | CCCC1CCCCN1C(=O)COc1ccc2ccc(C(CC(=O)O)c3ccc4c(c3)OCO4)cc2c1 (stereo not drawn) [6k, 3-(benzo[d][1,3]dioxol-5-yl)-3-(7-(2-oxo-2-(2-propylpiperidin-1-yl)ethoxy)naphthalen-2-yl)propanoic acid] | 0.063 ± 0.003
17 | O=C(O)CC(c1ccc2c(c1)OCO2)c1ccc2ccc(OCC(=O)Nc3ccccc3)cc2c1 (stereo not drawn) [6l, 3-(benzo[d][1,3]dioxol-5-yl)-3-(7-(2-oxo-2-(phenylamino)ethoxy)naphthalen-2-yl)propanoic acid] | 1.88

Further lines, results first:

Row | Ki [µM] | Compound
18 | 0.153 ± 0.012 | CC(Oc1ccc2ccc(C(CC(=O)O)c3ccc4c(c3)OCO4)cc2c1)C(=O)NC1CCCCCC1 (stereo not drawn) [7a, 3-(Benzo[d][1,3]dioxol-5-yl)-3-(7-((1-(cycloheptylamino)-1-oxopropan-2-yl)oxy)naphthalen-2-yl)propanoic acid]
19 | 0.129 ± 0.009 | CN(C(=O)COc1ccc2ccc(C(CC(=O)O)c3ccc4c(c3)OCO4)cc2c1)C1CCCCCC1 (stereo not drawn) [7b, 3-(benzo[d][1,3]dioxol-5-yl)-3-(7-(2-(cycloheptyl(methyl)amino)-2-oxoethoxy)naphthalen-2-yl)propanoic acid]
20 | 0.015 ± 0.001 | CC(C(=O)O)C(c1ccc2c(c1)OCO2)c1ccc2ccc(OCC(=O)NC3CCCCCC3)cc2c1 (stereo not drawn) [7c, 3-(benzo[d][1,3]dioxol-5-yl)-3-(7-(2-(cycloheptylamino)-2-oxoethoxy)naphthalen-2-yl)-2-methylpropanoic acid]
21 | 0.003 ± 0.001 | CC(C)(C(=O)O)C(c1ccc2c(c1)OCO2)c1ccc2ccc(OCC(=O)NC3CCCCCC3)cc2c1 (stereo not drawn) [7d, 3-(benzo[d][1,3]dioxol-5-yl)-3-(7-(2-(cycloheptylamino)-2-oxoethoxy)naphthalen-2-yl)-2,2-dimethylpropanoic acid]
22 | 0.522 ± 0.067 | O=C(O)CC(c1ccc2c(c1)OCO2)c1ccc2ncc(OCC(=O)NC3CCCCCC3)cc2c1 (stereo not drawn) [9a, 3-(benzo[d][1,3]dioxol-5-yl)-3-(3-(2-(cycloheptylamino)-2-oxoethoxy)quinolin-6-yl)propanoic acid]
23 | 0.083 ± 0.037 | O=C(O)CC(c1ccc2c(c1)OCO2)c1ccc2ccc(OCC(=O)NC3CCCCCC3)nc2c1 (stereo not drawn) [9b, 3-(benzo[d][1,3]dioxol-5-yl)-3-(2-(2-(cycloheptylamino)-2-oxoethoxy)quinolin-7-yl)propanoic acid]
24 | 0.064 | O=C(O)CC(c1ccc2c(c1)OCO2)c1cnc2ccc(OCC(=O)NC3CCCCCC3)cc2c1 (stereo not drawn) [9c, 3-(benzo[d][1,3]dioxol-5-yl)-3-(6-(2-(cycloheptylamino)-2-oxoethoxy)quinolin-3-yl)propanoic acid]
